Results on 10 molecules are retold here after US20140296479A1, “D-APTIDE AND RETRO-INVERSO APTIDE WITH MAINTAINED TARGET AFFINITY AND IMPROVED STABILITY” (GWANGJU INSTITUTE OF SCIENCE AND TECHNOLOGY, priority 2011, published 2014).

Assay [1] addresses HSA (Human serum albumin) (Homo sapiens, UniProt P02768). Briefly: BIAcore X (SPR) affinity for HSA. Particulars: for kon: PBS pH 7.4, read-out: ka. Type of assay: binding. Here is the method:
(§1) To investigate whether the activity is maintained where Aptamer-Like Peptides specifically binding to HSA (Human serum albumin), i.e., L-AptideHSA are converted into D- and Retro inverso (RI)-form, their affinity to a target was measured. Firstly, 3 peptides, L-AptideHSA ([…], all L-amino acids, SEQ ID NO:42), D-AptideHSA ([…], all D-amino acids, SEQ ID NO:42) and RI-AptideHSA ([…], all D-amino acids), were synthesized by Anigen Inc. (Korea). Their affinity for a target was determined using BIAcore X (Biacore AB, Uppsala, Sweden). HSA of 3000 RU was immobilized on CM5 chip (Biacore). A PBS (pH 7.4) was used as a running buffer, a flow rate was 30 μl/min, and the affinity was determined with BIAevaluation software (Biacore AB, Uppsala, Sweden) after measuring kinetics of various concentrations.

A further assay addresses T1, fibronectin EDB (Homo sapiens, UniProt P02751).
T1 construct: Biotin-EDB of 2000 RU was immobilized on streptavidin SA chip
Nature of the assay: BIAcore X (SPR) affinity for fibronectin EDB. The format is binding. Here is the method: To investigate whether the activity is maintained where Aptamer-Like Peptides specifically binding to fibronectin EDB, i.e., L-Aptide1EDB are converted into D- and Retro inverso (RI)-form, their affinity to a target was measured. Firstly, 3 peptides, L-Aptide1EDB ([…], all L-amino acids, SEQ ID NO:21), D-Aptide1EDB ([…], all D-amino acids, SEQ ID NO:21) and RI-Aptide1EDB ([…], all D-amino acids), were synthesized by Anigen Inc. (Korea). Their affinity for a target was determined using BIAcore X (Biacore AB, Uppsala, Sweden). Biotin-EDB of 2000 RU was immobilized on streptavidin SA chip (Biacore). A PBS (pH 7.4) was used as a running buffer, a flow rate was 30 μl/min, and the affinity was determined with BIAevaluation software (Biacore AB, Uppsala, Sweden) after measuring kinetics of various concentrations.
Background: In SPR one partner is held on a chip, and binding of the other changes the refractive index at the surface.

In assay [2] the target is T2, VEGF121 (Homo sapiens, UniProt P15692).
T2 sequence (P15692 27-147 isoform P15692-9): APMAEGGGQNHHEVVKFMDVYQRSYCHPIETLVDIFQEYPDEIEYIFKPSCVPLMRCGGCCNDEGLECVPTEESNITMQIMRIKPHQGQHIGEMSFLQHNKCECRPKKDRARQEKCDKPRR
Nature of the assay: BIAcore X (SPR) affinity for VEGF. The format is binding. How it is done: as §1, with “VEGF (Vascular endothelial growth factor),” for “HSA (Human serum albumin),”, “L-Aptide1VEGF” for “L-AptideHSA”, “NO:23), D-Aptide1VEGF” for “NO:42), D-AptideHSA”, “NO:23)” for “NO:42)”, “RI-Aptide1VEGF” for “RI-AptideHSA”, “VEGF121” for “HSA”

In assay [3] the target is T3, VEGF121 (UniProt P15692-9 27-147).
T3 construct: VEGF121, 3000 RU, immobilised on a CM5 chip; also called Vascular endothelial growth factor
T3 sequence (looked up): T2 sequence (P15692 27-147 isoform P15692-9)
Briefly: SPR, BIAcore X; VEGF121 on CM5 chip, peptide as analyte. How it is done:
To investigate whether the activity is maintained where Aptamer-Like Peptides specifically binding to VEGF (Vascular endothelial growth factor), i.e., L-Aptide1VEGF are converted into D- and Retro inverso (RI)-form, their affinity to a target was measured. Firstly, 3 peptides, L-Aptide1VEGF ([…], all L-amino acids, SEQ ID NO:23), D-Aptide1VEGF ([…], all D-amino acids, SEQ ID NO:23) and RI-Aptide1VEGF ([…], all D-amino acids), were synthesized by Anigen Inc. (Korea). Their affinity for a target was determined using BIAcore X (Biacore AB, Uppsala, Sweden). VEGF₁₂₁ of 3000 RU was immobilized on CM5 chip (Biacore).

The target in assay [4] is T4, HSA (Human serum albumin) (human, UniProt P02768 25-609).
T4 construct: HSA, 3000 RU, immobilised on a CM5 chip; also called HAS
Briefly: SPR, BIAcore X; HSA on CM5 chip, peptide as analyte. Here is the method:
To investigate whether the activity is maintained where Aptamer-Like Peptides specifically binding to HSA (Human serum albumin), i.e., L-AptideHSA are converted into D- and Retro inverso (RI)-form, their affinity to a target was measured. Firstly, 3 peptides, L-AptideHSA ([…], all L-amino acids, SEQ ID NO:42), D-AptideHSA ([…], all D-amino acids, SEQ ID NO:42) and RI-AptideHSA ([…], all D-amino acids), were synthesized by Anigen Inc. (Korea). Their affinity for a target was determined using BIAcore X (Biacore AB, Uppsala, Sweden). HSA of 3000 RU was immobilized on CM5 chip (Biacore).

[5] abbreviates: biotin-EDB on SA chip, PBS pH 7.4.
Setting [6] is: VEGF121 on CM5 chip, PBS pH 7.4.

Where a SMILES comes first, the peptide text is derived from it. Where no end group is shown, it is not given here. [ ]: non-standard residue; d: D form.

T4 sequence (P02768 25-609 limits assumed): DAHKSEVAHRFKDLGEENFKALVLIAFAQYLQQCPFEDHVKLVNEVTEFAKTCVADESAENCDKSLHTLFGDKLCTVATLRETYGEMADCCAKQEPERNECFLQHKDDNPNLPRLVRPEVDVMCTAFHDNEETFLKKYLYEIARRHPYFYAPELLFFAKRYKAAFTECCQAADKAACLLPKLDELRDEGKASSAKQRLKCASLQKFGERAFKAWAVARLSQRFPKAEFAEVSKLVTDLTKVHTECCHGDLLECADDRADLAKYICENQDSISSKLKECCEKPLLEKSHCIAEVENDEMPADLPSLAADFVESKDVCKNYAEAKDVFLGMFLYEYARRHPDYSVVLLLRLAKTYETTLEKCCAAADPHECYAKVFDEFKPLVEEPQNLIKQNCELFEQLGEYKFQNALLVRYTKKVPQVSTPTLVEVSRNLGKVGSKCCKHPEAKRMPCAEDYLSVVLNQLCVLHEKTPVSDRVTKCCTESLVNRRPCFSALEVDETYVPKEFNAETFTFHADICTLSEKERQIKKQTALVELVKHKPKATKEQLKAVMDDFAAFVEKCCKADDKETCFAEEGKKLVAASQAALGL

For `CC[C@@H](C)[C@@H](NC(=O)CNC(=O)[C@@H](CCCCN)NC(=O)[C@@H](Cc1c[nH]c2ccccc12)NC(=O)[C@H](NC(=O)[C@@H](Cc1c[nH]c2ccccc12)NC(=O)[C@@H](CCCCN)NC(=O)CNC(=O)[C@@H](CC(N)=O)NC(=O)[C@@H](CCC(=O)O)NC(=O)[C@@H](Cc1c[nH]c2ccccc12)NC(=O)[C@H](NC(=O)[C@@H](Cc1c[nH]c2ccccc12)NC(=O)[C@@H](CO)NC(=O)CNC(=O)[C@@H](Cc1ccccc1)NC(=O)[C@@H](CC(N)=O)NC(=O)[C@@H](Cc1ccccc1)NC(=O)[C@@H](Cc1c[nH]cn1)NC(=O)[C@@H](C)NC(=O)[C@H](N)Cc1c[nH]cn1)[C@H](C)O)[C@H](C)O)C(=O)N[C@H](Cc1c[nH]c2ccccc12)C(=O)N[C@H](CC(C)C)C(=O)N1CCC[C@@H]1C(=O)N[C@H](C)C(=O)N[C@H](CCCNC(=N)N)C(=O)O` [D-AptideHSA] (H-[dH][dA][dH][dF][dN][dF]G[dS][dW][dT][dW][dE][dN]G[dK][dW][dT][dW][dK]G[dI][dW][dL][dP][dA][dR]-OH; N-terminus and C-terminus assumed), in assay [1] (HSA on CM5 chip, PBS pH 7.4), the kd came to 0.014 s⁻¹. Besides, the kon in assay [1] (HSA on CM5 chip) came to 97000 M⁻¹ s⁻¹.
With `CC[C@H](C)[C@H](NC(=O)CNC(=O)[C@H](CCCCN)NC(=O)[C@H](Cc1c[nH]c2ccccc12)NC(=O)[C@@H](NC(=O)[C@H](Cc1c[nH]c2ccccc12)NC(=O)[C@H](CCCCN)NC(=O)CNC(=O)[C@H](CC(N)=O)NC(=O)[C@H](CCC(=O)O)NC(=O)[C@H](Cc1c[nH]c2ccccc12)NC(=O)[C@@H](NC(=O)[C@H](Cc1c[nH]c2ccccc12)NC(=O)[C@H](CO)NC(=O)CNC(=O)[C@H](Cc1ccccc1)NC(=O)[C@H](CC(N)=O)NC(=O)[C@H](Cc1ccccc1)NC(=O)[C@H](Cc1c[nH]cn1)NC(=O)[C@H](C)NC(=O)[C@@H](N)Cc1c[nH]cn1)[C@@H](C)O)[C@@H](C)O)C(=O)N[C@@H](Cc1c[nH]c2ccccc12)C(=O)N[C@@H](CC(C)C)C(=O)N1CCC[C@H]1C(=O)N[C@@H](C)C(=O)N[C@@H](CCCNC(=N)N)C(=O)O` [L-AptideHSA] (H-HAHFNFGSWTWENGKWTWKGIWLPAR-OH; N-terminus and C-terminus assumed), the kd in assay [1] (HSA on CM5 chip, PBS pH 7.4) was 0.013 s⁻¹. Further, the kon in assay [1] (HSA on CM5 chip) was 95000 M⁻¹ s⁻¹.
With `CC[C@@H](C)[C@@H](NC(=O)[C@@H](CCCNC(=N)N)NC(=O)[C@@H](CC(C)C)NC(=O)[C@@H](CCC(=O)O)NC(=O)[C@H](N)CCC(N)=O)C(=O)N[C@@H](C(=O)NCC(=O)N[C@H](CCCCN)C(=O)N[C@H](Cc1c[nH]c2ccccc12)C(=O)N[C@@H](C(=O)N[C@H](Cc1c[nH]c2ccccc12)C(=O)N[C@H](CCCCN)C(=O)NCC(=O)N[C@H](CC(N)=O)C(=O)N[C@H](CCC(=O)O)C(=O)N[C@H](Cc1c[nH]c2ccccc12)C(=O)N[C@@H](C(=O)N[C@H](Cc1c[nH]c2ccccc12)C(=O)N[C@H](CO)C(=O)NCC(=O)N[C@@H](C(=O)N[C@H](C)C(=O)N[C@H](CO)C(=O)N[C@H](CO)C(=O)N[C@H](CS)C(=O)N[C@H](Cc1c[nH]cn1)C(=O)O)C(C)C)[C@H](C)O)[C@H](C)O)[C@H](C)CC` [RI-Aptide1EDB] (H-[dQ][dE][dL][dR][dI][dI]G[dK][dW][dT][dW][dK]G[dN][dE][dW][dT][dW][dS]G[dV][dA][dS][dS][dC][dH]-OH; N-terminus and C-terminus assumed), at fibronectin EDB (setting [5]), binding was put at a Kd of 58 nM and the “koff (dissociation rate constant)” value turned out to be 0.0011 s⁻¹. Also, the kon on fibronectin EDB (biotin-EDB on SA chip, PBS pH 7.4, read-out: ka) came out at 19000 M⁻¹ s⁻¹. For the same molecule, the “binding to target, in words” value on fibronectin EDB (compared with L-Aptide) is listed as “affinity similar to L-Aptide”.
Consider `CC[C@@H](C)[C@@H](NC(=O)[C@@H](Cc1c[nH]c2ccccc12)NC(=O)[C@@H](CC(C)C)NC(=O)[C@H]1CCCN1C(=O)[C@@H](C)NC(=O)[C@H](N)CCCNC(=N)N)C(=O)NCC(=O)N[C@H](CCCCN)C(=O)N[C@H](Cc1c[nH]c2ccccc12)C(=O)N[C@@H](C(=O)N[C@H](Cc1c[nH]c2ccccc12)C(=O)N[C@H](CCCCN)C(=O)NCC(=O)N[C@H](CC(N)=O)C(=O)N[C@H](CCC(=O)O)C(=O)N[C@H](Cc1c[nH]c2ccccc12)C(=O)N[C@@H](C(=O)N[C@H](Cc1c[nH]c2ccccc12)C(=O)N[C@H](CO)C(=O)NCC(=O)N[C@H](Cc1ccccc1)C(=O)N[C@H](CC(N)=O)C(=O)N[C@H](Cc1ccccc1)C(=O)N[C@H](Cc1c[nH]cn1)C(=O)N[C@H](C)C(=O)N[C@H](Cc1c[nH]cn1)C(=O)O)[C@H](C)O)[C@H](C)O` [RI-AptideHSA] (H-[dR][dA][dP][dL][dW][dI]G[dK][dW][dT][dW][dK]G[dN][dE][dW][dT][dW][dS]G[dF][dN][dF][dH][dA][dH]-OH; N-terminus and C-terminus assumed), for which, in assay [1] (HSA on CM5 chip, PBS pH 7.4), the Kd (usually the constant that tells how readily two partners part at equilibrium) was 141 nM and the kd came out at 0.0082 s⁻¹. Also, the kon in assay [1] (HSA on CM5 chip) worked out at 58000 M⁻¹ s⁻¹. Besides, the “binding to target, in words” value in assay [1] (compared with L-Aptide) was “affinity similar to L-Aptide”.
“SQNYKWGKWTWKGNEWTWSGQFFNAH [RI-Aptide1VEGF]”: the “binding to target, in words” value at VEGF121 [2] is listed as “barely bound”. In addition, on VEGF121 [2] (setting [6]), the dissociation constant (Kd) entry is given as “Non-binding”, the ka result was “Non-binding” and the kd result is listed as “Non-binding”.

B1: L-Aptide1VEGF (designed binder)
peptide: HANFFQGSWTWENGKWTWKGWKYNQS
notes: Synthetic 26-mer, all L-amino acids; also called L-AptideVEGF; Aptide1VEGF (L-form)
Consider B1, for which, in the assay with VEGF121 [3], the Kd was found to be 30 nM and the koff (usually the rate constant with which the complex falls apart) was found to be 0.01 s⁻¹.
In assay [4], [dH][dA][dH][dF][dN][dF]G[dS][dW][dT][dW][dE][dN]G[dK][dW][dT][dW][dK]G[dI][dW][dL][dP][dA][dR] (designed binder) [D-AptideHSA] came in with a Kd of 153 nM and a koff of 0.014 s⁻¹.
In assay [4], [dR][dA][dP][dL][dW][dI]G[dK][dW][dT][dW][dK]G[dN][dE][dW][dT][dW][dS]G[dF][dN][dF][dH][dA][dH] (designed binder) [RI-AptideHSA] displayed a koff of 0.0082 s⁻¹.
In the assay with VEGF121 [3], [dH][dA][dN][dF][dF][dQ]G[dS][dW][dT][dW][dE][dN]G[dK][dW][dT][dW][dK]G[dW][dK][dY][dN][dQ][dS] (designed binder) [D-Aptide1VEGF] gave an off-rate constant (koff) of 0.0066 s⁻¹.

B2: L-AptideHSA (designed binder)
peptide: HAHFNFGSWTWENGKWTWKGIWLPAR
notes: Synthetic 26-mer, all L-amino acids; also called AptideHSA (L-form)
B2: in assay [4], the equilibrium dissociation constant (Kd) was 142 nM and the koff turned out to be 0.013 s⁻¹.
